Measured values as given in patent US20220125837A1, “METHODS FOR CONTROLLED ELIMINATION OF THERAPEUTIC CELLS” (Bellicum Pharmaceuticals, Inc., priority 2014, published 2022).

Legend:
iFas-transduced CTLs = assay: CID-induced elimination of GFP+ iFas-transduced EBV-CTLs; assay type: cell-based, human; settings: GFPhigh, 1:1 with nontransduced, 10 nM CID, day 7
Description: Caspase-9 was selected as an inducible proapoptotic molecule for clinical use rather than previously presented iFas and iFADD, because Caspase-9 acts relatively late in apoptosis signaling and therefore is expected to be less susceptible to inhibition by apoptosis inhibitors. Thus, suicide function should be preserved not only in malignant, transformed T-cell lines that express antiapoptotic molecules, but also in subpopulations of normal T cells that express elevated antiapoptotic molecules as part of the process to ensure long-term preservation of memory cells. To further investigate the hypothesis, the function of iCasp9M and iFas was first compared in EBV-CTLs. To eliminate any potential vector based difference, inducible Fas also was expressed in the MSCV.IRES.GFP vector, like iCasp9. […]
Elimination of GFP^+ cells after administration of 10 nM CID was more rapid and more efficient in iCasp9M than in iFas-transduced CTLs (99.2%+/−0.14% of iCasp9M-transduced cells compared with 89.3%+/−4.9% of iFas-transduced cells at day 7 after CID; P<0.05). On the day of LCL stimulation, 10 nM CID was administered, and GFP was measured at the time points indicated to determine the response to CID. […]

[1] = tested on: F-Casp9M.I.GFPhigh-transduced T cells; assay: Annexin V/7-AAD staining of iCasp9M GFPhigh T cells after CID; assay type: cell-based, human
Description: CID (AP20187; ARIAD Pharmaceuticals) at indicated concentrations was added to transfected 293T cells or transduced CTLs. Adherent and nonadherent cells were harvested and washed with annexin binding buffer (BD Pharmingen, San Jose, Calif.). Cells were stained with annexin-V and 7-amino-actinomycin D (7-AAD) for 15 minutes according to the manufacturer's instructions (BD Pharmingen). Within 1 hour after staining, cells were analyzed by flow cytometry using CellQuest software (Becton Dickinson).
A representative example of 3 separate experiments is shown.
For clinical applications therefore, versions of the expression constructs with selectable markers that allow selection for high copy number, high levels of expression, or both high copy number and high levels of expression may be desirable. […] The dose response remained unchanged for at least 4 weeks after transduction.

[2] = tested on: iCasp9-ΔCD19-transduced MSCs; assay: In vivo killing of iCasp9 MSCs in SCID mice (luminescence, qPCR)
Description: All mouse experiments were performed in accordance with the Baylor College of Medicine animal husbandry guidelines. To assess the persistence of modified MSCs in vivo, a SCID mouse model was used in conjunction with an in vivo imaging system. MSCs were transduced with retroviruses coding for the enhanced green fluorescent protein-firefly luciferase (eGFP-FFLuc) gene alone or together with the iCasp9-ΔCD19 gene. Cells were sorted for eGFP positivity by fluorescence activated cell sorting using a MoFlo flow cytometer (Beckman Coulter, Fullerton, Calif.). Doubly transduced cells were also stained with PE-conjugated anti-CD19 and sorted for PE-positivity. SCID mice (8-10 weeks old) were injected subcutaneously with 5×10^5 MSCs with and without iCasp9-ΔCD19 in opposite flanks. […] For in vivo imaging of MSCs expressing eGFP-FFLuc, mice were injected intraperitoneally with D-luciferin (150 mg/kg) and analyzed using the Xenogen-IVIS Imaging System. Total luminescence (a measurement proportional to the total labeled MSCs deposited) at each time point was calculated by automatically defining regions-of-interest (ROIs) over the MSC implantation sites. These ROIs included all areas with luminescence signals at least 5% above background. Total photon counts were integrated for each ROI and an average value calculated. […]

[3] = tested on: iCasp9M-transduced EBV-CTLs; assay: CID-induced elimination of GFP+ iCasp9M-transduced EBV-CTLs (flow cytometry); assay type: cell-based, human
[4] = T cells selected for high expression, overnight 10 nM CID, mean
[5] = representative example of 3 experiments

CC[C@H](C(=O)N1CCCC[C@H]1C(=O)O[C@H](CCc1ccc(OC)c(OC)c1)c1cccc(OCC(=O)NCC(CNC(=O)COc2cccc([C@@H](CCc3ccc(OC)c(OC)c3)OC(=O)[C@@H]3CCCCN3C(=O)[C@@H](CC)c3cc(OC)c(OC)c(OC)c3)c2)CN(C)C)c1)c1cc(OC)c(OC)c(OC)c1 [AP20187]
Elimination of GFP+ cells (iFas-transduced CTLs): 89.3%+/−4.9%
apoptotic (annexin-V+/7-AAD−) phenotype [1, 4]: 64%
necrotic (annexinV+/7-AAD+) phenotype [1, 4]: 30%
apoptotic phenotype (annexin V+, 7-AAD−) [1, 5]: 64%
necrotic phenotype (annexin V+, 7-AAD+) [1, 5]: 32%
surviving iCasp9-positive cells, % of the original population ([2]; after one week): 0.7%
killing / depletion of iCasp9-positive cells in vivo ([2]; two injections of 50 μg of CID 24 hours apart, qPCR): > 99%
reduction in mean fluorescence intensity of GFP after CID ([3]; CTLs that survived CID treatment): 70%
CID sufficient to obtain the maximal deletion effect ([3]; F-Casp9M.I.GFPhigh, survival of GFP+ cells on day 7): 1 nM
Elimination of GFP+ cells ([3]; iCasp9M-transduced CTLs, GFPhigh, 1:1 with nontransduced, 10 nM CID, day 7): 99.2%+/−0.14%
GFP+ cells eliminated ([3]; single 10-nM dose of CID, unselected iCasp9M CTLs, 5 donors): 91.3%
